≈ marks a conversion by molar mass, not a printed value.

The source of these data is patent US4678810A, “Medical uses of halogenobenzohenone-oxime derivatives” (Institut de Recherches Chimiques et Biologiques of Appliques, priority 1983, dated 1987).

One data set relates to Gram+ bacteriae. The following applies: commercialized drug; cited from earlier work.
For data set [1], the system named is Staphylococcus aureus London CIP A.238. In words: Antibacterial activity in vitro (MIC), dilution technique. Type of data set: cell-based. From the text: (§1) The antibacterial activity was studied in vitro according to the usual classical dilution techinque with respect to several strains, in order to determine the minimal inhibiting concentration (M.I.C.) i.e. the minimal bacteriostatic concentration.
(§2) The results thus obtained are tabulated in table II hereinafter, the strains used being those of the catalogues of the "Institut Pasteur" of Paris, France (abbreviation: CIP), the "Centre International de Distribution de Souches et d'Information sur les Types Microbiens de Lausanne" (abbreviation: La) and the "American Type Culture Collection" (abbreviation: ATCC).

The subject of data set [2] is Streptococcus pyogenes CIP. 56.43. The description is as above. It counts as cell-based.
Text: as §1, §2

Data set [3] relates to Streptococcus pyogenes CIP. 56.1. Described as above. Type of data set: cell-based.
Text: as §1, §2

Data set [4] has as its system Staphylococcus aureus La 634. Described as above. Type of data set: cell-based. To be noted: LA634.
Text: as §1, §2

The test system of data set [5] is Staphylococcus aureus La 636. The data set is described as above. Type of data set: cell-based. To be noted: LA636.
Text: as §1, §2

The subject of data set [6] is Streptococcus pyogenes CIP. 56.45. Described as above. It counts as cell-based.
Text: as §1, §2

Another data set has as its system Streptococcus La 147. Described as above. Type of data set: cell-based. The following applies: LA147.
Text: as §1, §2

Data set [7] relates to Streptococcus faecalis CIP 53.152. Described as above. Type of data set: cell-based. To be noted: Enterococcus faecalis, CIP53.
Text: as §1, §2

Data set [8] has as its system Streptococcus pyogenes CIP. 56.41. The data set is described as above. Type of data set: cell-based.
Text: as §1, §2

Data set [9] concerns Diplococcus pneumoniae La 210. Described as above. Type of data set: cell-based. The following applies: Streptococcus pneumoniae, LA210.
Text: as §1, §2

For data set [10], the system named is Streptococcus pyogenes CIP. A 241. Described as above. Type of data set: cell-based. To be noted: CIP.A241.
Text: as §1, §2

The test system of data set [11] is Diplococcus pneumoniae La 209. The data set is described as above. It counts as cell-based. The following applies: Streptococcus pneumoniae, LA209.
Text: as §1, §2

The subject of data set [12] is Staphylococcus aureus La 659. The description is as above. It counts as cell-based. To be noted: LA659.
Text: as §1, §2

Data set [13] deals with Streptococcus faecalis CIP 55.142. The description is as above. Type of data set: cell-based. To be noted: Enterococcus faecalis, CIP55.
Text: as §1, §2

Data set [14] deals with Staphylococcus aureus ATCC 6538 P. The data set is described as above. The following applies: ATCC6538. It counts as cell-based.
Text: as §1, §2

The test system of data set [15] is Bacillus subtilis ATCC 6633. The data set is described as above. It counts as cell-based. To be noted: ATCC6633.
Text: as §1, §2

The nature of data set [16]: Tolerance: diarrhoea after oral administration. It counts as in vivo. The following applies: mice, per os. How it is done:
(§3) Assays were performed on batches of mice (males and females) weighing each from 18 to 20 g and receiving the compounds to be tested at the doses of 0.5 g/kg, 0.8 g/kg, 1 g/kg, 2 g/kg, 3 g/kg and 4 g/kg per os in an aqueous medium containing 20 g/l of carboxymethylcellulose, the animals being observed during the 14 days following administration.

The conditions of data set [17]: cited from earlier work.
The nature of data set [18]: Tolerance: rectal temperature after oral administration. Type of data set: in vivo. To be noted: mice, per os, from the dose of 2 g/kg. As for the experimental part:
as §3

Data set [19] can be described thus: Tolerance: weight / liver hypertrophy after oral administration. It counts as in vivo. The following applies: mice, per os, from the dose of 0.8 g/kg. How it is done:
as §3

Data set [20] can be described thus: Acute oral toxicity (DL-50), 14-day observation. The following applies: mouse, in vivo, mice, per os, 14 days observation. As for the experimental part:
as §3

Data set [21] deals with acute infections of the otorhinolaryngological system and bronchopathies. The data set is described as follows: Clinical assays in acute infections of the otorhinolaryngological system and bronchopathies. Type of data set: in vivo, human. To be noted: humans, acute ENT infections and bronchopathies. As for the experimental part: Clinical assays carried out on human beings suffering from infectious disease caused by Gram+ bacteriae and Neisseria Gram- bacteria gave fair and good results, especially when the pharmaceutical composition according to the invention which was administered suitably contained from 0.1 to 95% by weight of at least one compound of the formula I.
For oral administration, the composition is preferably formulated as tablets or gelatine-coated capsules, each tablet or capsule containing from 10 to 200 mg of the active ingredient. For the treatment of infections due to Gram+ bacteriae and Neisseria, such tablets or capsules are suitably administered to human patients at the rate of 2 to 8 tablets or capsules per day, for at least 4 days and preferably from 4 to 7 days, in particular for compound B.602.

The subject of another data set is Gram+ strains. In words: Antibacterial activity in vitro, summary for Gram+ strains. To be noted: compared with B.11. It counts as cell-based, Gram+ bacteriae.
Text: as §1, §2

On the set-up of data set [22]: species or system mice. The following applies: mouse, in vivo. How it is done:
as §3

In data set [23] the test system is Gram- strains such as Neisseria. In words: Antibacterial activity in vitro, summary for some Gram- strains. Type of data set: cell-based.
Text: as §1, §2

What is called MIC is the smallest concentration in the dilution series that meets the test's criterion for growth inhibition. Low values mean a more susceptible organism, high ones a less susceptible organism. As a reminder, the LD50 is the dose expected to kill half of the subjects tested. A higher LD50 goes with lower toxicity. For the molecule `CC(C)(C)CC(C)(C)c1ccc(O)c(Cc2ccc(Cl)cc2Cl)c1` [Clofoctol, 2-(2,4-dicholrobenzyl)-4-(1,1,3,3-tetramethylbutyl)-phenol], the “effectiveness in infectious diseases caused by Gram+ bacteriae” value in the data set with Gram+ bacteriae is on record as “particularly effective”. The MIC in data set [1] came out at 3 µg/mL (≈ 8.21 µM); in data set [2], 2 µg/mL (≈ 5.47 µM); in data set [3], 3 µg/mL (≈ 8.21 µM); in data set [4] it was 6 µg/mL (≈ 16.4 µM); in data set [5], 5 µg/mL (≈ 13.7 µM); in data set [6], 2 µg/mL (≈ 5.47 µM). The MIC in the data set with Streptococcus La 147 was determined as 7 µg/mL (≈ 19.2 µM); in data set [7] it was 6 µg/mL (≈ 16.4 µM); in data set [8], 4 µg/mL (≈ 10.9 µM); in [9], 5 µg/mL (≈ 13.7 µM); in data set [10] it was 4 µg/mL (≈ 10.9 µM); in data set [11], 4 µg/mL (≈ 10.9 µM). Moreover, the MIC turned out to be 6 µg/mL (≈ 16.4 µM) in data set [12], 5 µg/mL (≈ 13.7 µM) in data set [13], 8 µg/mL (≈ 21.9 µM) in data set [14] and 4 µg/mL (≈ 10.9 µM) in data set [15]. For the same molecule, the “dose at which it begins to induce diarrhoea” value in data set [16] was 0.8 g/kg. Further, in data set [17], the hydrosolubility / hydrodispersibility result is given as “not naturally hydrosoluble nor hydrodispersible”. Further, the “reduction of rectal temperature” value in data set [18] is on record as “reduces the rectal temperature for 48 hours”. In [19], the liver hypertrophy entry is “induces a slight liver hypertrophy”. Also, the LD50 at 336 h in data set [20] is 2000 mg/kg.
For `CC(C)(C)CC(C)(C)c1ccc(O)c(C(=NO)c2ccc(Cl)cc2Cl)c1` [Example 1, 2',4'-dichloro-2-hydroxy-5-(1,1,3,3-tetramethylbutyl)-benzophenone-oxime], in data set [21], the “clinical result as a bactericidal agent” value is given as “very interesting as a bactericidal agent”. For the same molecule, the “activity against Gram+ strains” value with Gram+ strains is “more active than B.11”. For the same molecule, the “tolerance compared with B.11” value in [22] is reported as “better tolerated than B.11”. Besides, the minimum inhibitory concentration (MIC) in data set [1] is 1 µg/mL (≈ 2.54 µM); in [2] it was 1 µg/mL (≈ 2.54 µM); in data set [3], 2 µg/mL (≈ 5.07 µM); in [4] it was 3 µg/mL (≈ 7.61 µM); in [5], 4 µg/mL (≈ 10.1 µM); in [6], 1 µg/mL (≈ 2.54 µM). Besides, the minimum inhibitory concentration (MIC) in the data set on Streptococcus La 147 was 2 µg/mL (≈ 5.07 µM); in data set [7] it was 3 µg/mL (≈ 7.61 µM); in data set [8] it was 3 µg/mL (≈ 7.61 µM); in data set [9], 3 µg/mL (≈ 7.61 µM); in data set [10], 2 µg/mL (≈ 5.07 µM); in [11], 4 µg/mL (≈ 10.1 µM). Also, the MIC in data set [12] was found to be 5 µg/mL (≈ 12.7 µM); in data set [13], 2 µg/mL (≈ 5.07 µM); in data set [14], 4 µg/mL (≈ 10.1 µM); in data set [15], 1 µg/mL (≈ 2.54 µM). In data set [23], the “activity against some Gram- strains” value is “active against some Gram- strains such as Neisseria”. In data set [20], this molecule had a median lethal dose (LD50) at 336 h above 4000 mg/kg.
